Earlier results as cited in patent US9241502B2, “Animal feed compositions capable of reducing the incidence of fescue toxicosis in mammals” (priority 2005, dated 2016).

Test system: lactating dairy cattle
Conditions: as a single ingredient

Vitamin E
effectiveness against fescue toxicosis: not found to be effective
